Values of other authors in patent US7777051B2, “Asymmetric benzimidazoles and related compounds as potassium channel modulators” (Icagen, Inc., priority 2003, dated 2010).

Target: SK2 subtype channels (Rattus norvegicus, UniProt P70604)
Details: patch clamp
For `CN(C)CCC=C1c2ccccc2CCc2ccccc21` [amitriptyline], the “block of SK2 channel currents” value is given as “block SK2 channel currents with micromolar affinity”. For `NC(=O)N1c2ccccc2C=Cc2ccccc21` [carbamazepine], the “block of SK2 channel currents” value is listed as “block SK2 channel currents with micromolar affinity”. For `Nc1c2c(nc3ccccc13)CCCC2` [tacrine], the “block of SK2 channel currents” value is listed as “block SK2 channel currents with micromolar affinity”.

System: SK channels
Details: not given
In the case of `O=C1N(c2ccccc2)c2ccccc2C1(Cc1ccncc1)Cc1ccncc1` [linopirdine], the “inhibition of SK channels” value is given as “ineffective at inhibiting SK channels”.

Target: T1, recombinant human SK4 (hIK1 or hKCa4) channels (Homo sapiens, UniProt O15554+P0DP23)
T1 construct: host or cells: HEK 293 cells (transfected, membrane patches)
Details: applied to the inside of membrane patches, concentrations up to 100 μM; HEK 293
In the case of Barium, the “activation of SK4 channels” value is given as “activated SK4 channels in a concentration-dependent manner”. In the case of cadmium, the “activation of SK4 channels” value is given as “activated SK4 channels in a concentration-dependent manner”. In the case of calcium, the “activation of SK4 channels” value is listed as “activated SK4 channels in a concentration-dependent manner”. For cobalt, the “activation of SK4 channels” value is listed as “did not activate the SK4 channels”. For iron, the “activation of SK4 channels” value is given as “did not activate the SK4 channels”. In the case of lead, the “activation of SK4 channels” value is given as “activated SK4 channels in a concentration-dependent manner”. For magnesium, the “activation of SK4 channels” value is listed as “did not activate the SK4 channels”. In the case of strontium, the “activation of SK4 channels” value is listed as “activated SK4 channels in a concentration-dependent manner”. For zinc, the “activation of SK4 channels” value is given as “did not activate the SK4 channels”.
